According to article PMC10354055, “An optimized Nurr1 agonist provides disease-modifying effects in Parkinson’s disease models” (Nature Communications, 2023):
Several values for one entry are separate records, joined by “and”; a condition that tells them apart may be missing. Equal entries are not always repeated.

How the values were obtained:
N27-A cells = assay: Cell viability, MTT reduction, MPP+-treated N27-A cells; format: cell-based, rat; conditions: Fig. 2a, CQ 100 µM, 4A7C-301 1 µM
MN9D cells = assay: Dopaminergic gene expression (TH, DAT, AADC, VMAT2, c-Ret), qRT-PCR, MN9D cells with MPP+; format: cell-based, mouse; conditions: MN9D, decreased by MPP+
Description: (§1) Total RNA was extracted using the GeneJET RNA Purification Kit (Thermo Fisher Scientific) and 100 ng of RNA was subjected to cDNA synthesis using Invitrogen Superscript cDNA Synthesis Kit (Invitrogen) according to the manufacturer’s protocol. qRT-PCR was performed using a CFX Connect Real-Time System (Bio-Rad) in a 20 μl volume mixture containing 2X SsoAdvanced Universal SYBR Green Supermix (Bio-Rad), 100 ng/μl of forward and reverse primers, and 1 μl of cDNA sample. Gene expression levels were quantified by the 2^∆∆CT method (Ct of target gene—Ct of glyceraldehyde-3-phosphate dehydrogenase (GAPDH). The following primers were used for qRT-PCR: TH forward: 5′-[…]-3′, reverse: 5′-[…]-3′; DAT forward: 5′-[…]-3′, reverse: 5′-[…]-3′; AADC forward: 5′-[…]-3′, reverse: 5′-[…]-3′; VMAT2 forward: 5′-[…]-3′, reverse: 5′-[…]-3′; c-Ret forward: 5′-[…]-3′, reverse: 5′-[…]-3′; TNFα forward: 5′-[…]-3′; reverse: 5′-[…]-3′; GAPDH, forward 5′-[…]-3′, reverse 5′-[…]-3′.

[1] = test system: mouse ventral mesencephalic (VM) primary cells; assay: Dopaminergic gene expression, qRT-PCR, primary VM cells with 6-OHDA; format: cell-based; conditions: VM primary cells, decreased by 6-OHDA; CQ 20 µM, 4A7C-301 0.5 µM
Description: as §1
Briefly, dissected VM brain tissues were collected in ice-cold Dulbecco’s phosphate-buffered saline (DPBS) and then mechanically dissociated using pipettes. Thereafter, dissociated tissues were incubated in 0.05 % Trypsin-EDTA (Invitrogen) for 5 min at 37 °C. The cell suspension was plated onto glass coverslips in 48-well plates pre-coated with […] poly-L-ornithine, 5 μg/ml Fibronectin or 1 μg/ml Laminin at a density of 2.0 × 10^5 cells/cm^2 in differentiation medium (1% heat-inactivated FBS, 2 mM L-glutamine, 50X B27 supplement, 100 μM ascorbic acid and 2 μg/ml bFGF in Neurobasal media).

TNFα gene = assay: LPS-induced TNFα gene expression in BV2 cells, qRT-PCR; format: cell-based, mouse; conditions: Mus musculus, BV-2
Description: SK-N-BE(2)C human neuroblastoma, BV2 mouse microglia (ATCC), HeLa and MN9D cell lines were cultured in Dulbecco’s Modified Eagle Medium (DMEM) supplemented with 10% fetal bovine serum (FBS) and 100 U /ml penicillin and 100 μg /ml streptomycin. The murine MN9D dopaminergic cell line was kindly provided by Drs. Michael Zigmond and Juliann Jaumotte from the University of Pittsburgh. The N27-A rat dopaminergic cell line was kindly provided by Dr. Curt Freed from the University of Colorado School of Medicine. […] For transactivity assay, SK-N-BE(2)C and N27-A cell lines were transfected with pCMV-fNurr1, pGAL-Nurr1(LBD), pGAL-Nor1(LBD) or pGAL-Nur77(LBD) and reporter construct (p4xNL3-Luc for fNurr1 or p8xUAS-Luc for LBD constructs). pRSV-β-gal was co-transfected as an internal control. Cells were lysed in a lysis buffer (25 mM Tris-phosphate (pH 7.8), 2 mM DTT, 2 mM DCTA (1,2-diaminocyclohexane-N,N,N′,N′-tetraacetic acid), 10% glycerol, and 1% Triton X-100) 24 h after transfection, followed by adding firefly luciferase substrate for luminescence detection measured by a luminometer plate reader (SpectraMax®; Molecular device). Nurr1 transactivity was normalized to β-galactosidase activity. […] For Nurr1 stability determination, MN9D cells were incubated with MPP^+ (0.5 mM) for 2, 4, 8, 16, 24, and 32 h, or were transduced with lentivirus expressing GFP only or αSyn (wild-type or A53T) then harvested 24, 48 and 72 h after transduction. For autophagolysosome (APL) formation assay, HeLa and N27-A cells were transfected with mRFP-GFP-LC3 (Addgene) using Lipofectamine 2000 (Invitrogen). The medium was changed with starvation medium (Earle’s Balanced Salt Solution; EBSS) 24 h after transfection for autophagy induction.
as §1

MPTP-induced male mice [2] = assay: Pole test, MPTP-induced PD model mice; format: in vivo, mouse; conditions: Figure 4c; MPTP-induced mice; individual animal values
Description: (§2) MPTP (Sigma-Aldrich) was intraperitoneally (i.p.) injected (30 mg/kg) for 5 days (Day 1-5). […] To test dyskinetic involuntary behavior, an L-DOPA injected group was included, which received 50 mg/kg of L-DOPA and 15 mg/kg of benserazide (Sigma-Aldrich) (i.p.) for 16 days (Day 1–16). All compounds were administered 6 h post-MPTP injection to avoid any effect of compounds on the MPTP metabolism in the brain. Motor and non-motor related behavior tests were performed on the following days as described in Fig. 4a in an assessor- and observer-blinded fashion. Pre-training and baseline setup for motor-related behaviors were performed 3 days prior to the injections. Mice were sacrificed and subjected to immunohistochemistry. Mice were housed at the Animal Care Facilities of McLean Hospital under a 12-h light/12-h dark cycle, ambient temperature and humidity. Animals were handled in accordance with McLean Hospital’s Institutional Animal Care and Use Committee (Protocol #: 2015N000002) and followed National Institutes of Health guidelines.
Mice were trained to descend a vertical metal rod wrapped with rough tape (80 cm high, 12 mm diameter) once per day for 2 days, and then the baseline was measured before the pole test (3 days before the MPTP injection or the first pole test at week 2). Mice were placed head-upward on the pole and total descent time was recorded.

MPTP-induced male mice [3] = assay: Cylinder test, MPTP-induced PD model mice; format: in vivo, mouse; conditions: Figure 4d; MPTP-induced mice; individual animal values
Description: as §2
Mice were placed in a transparent plastic cylinder (15.5 cm high, 12.7 cm diameter) with a mirror behind it. Spontaneous activity was recorded and measured as counting the number of rearing events for 3 min session. A rear was considered only when the mouse touched the wall of the cylinder with its forelimb paws while standing on its hindlimbs (vertical movement) to count meaningful physiological movements.

In the case of `CCN(CC)CCCC(C)Nc1ccnc2cc(Cl)ccc12` (centres unmarked) [CQ, chloroquine], the “MTT reduction (%)” value (N27-A cells; Control) is reported as 57.8947% and 66.3158% and 61.0526% and 65.2632%, the “MTT reduction (%)” value (N27-A cells; Nurr1 KD) is reported as 34.0206% and 28.866% and 35.0515% and 27.8351% and the “MTT reduction (%)” value (N27-A cells; Nurr1 OE) is reported as 79.3814% and 82.4742% and 84.5361% and 87.6289%. The “dopaminergic gene expression (in words)” value (MN9D cells) was “significantly rescued”, the “dopaminergic gene expression (in words)” value [1] was “significantly rescued” and the EC50 (TNFα gene) was about 100 nM. For the same molecule, the “Time to traverse” value (MPTP-induced male mice [2]) was 6.3 s and 5.45 s and 6.58 s and 7.09 s and 8.95 s and 7.99 s and 7.69 s and 9.73 s and 9.95 s and the Number of rearing (MPTP-induced male mice [3]) was 9 and 22 and 80 and 21 and 16 and 37 and 89 and 30 and 61.
